{"source": "patent US20140187635A1", "about": "“DICLOFENAC COMPOSITIONS” (THEMIS MEDICARE LIMITED, priority 2012, published 2014)", "origin": "cited, not measured here", "key": {"[1]": {"tested_on": "eyes: rabbit"}, "[2]": {"tested_on": "rat", "settings": "in vivo, iv"}, "[3]": {"tested_on": "mouse"}, "[4]": {"tested_on": "Dog", "settings": "intravenous"}, "[5]": {"tested_on": "rabbit", "settings": "intravenous"}}, "note": "Where two headings read alike, the source gives them in different places.", "data": [{"smiles": "CCOCCOCCO", "note": "[Transcutol, diethylene glycol monoethyl ether]", "values": [{"measurement": "eyes: rabbit", "setting": "[1]", "result": 500, "unit": "mg"}, {"measurement": "LD50", "setting": "[2]", "result": 4, "unit": "g/kg"}, {"measurement": "LD50", "setting": "[3]; in vivo, ip", "result": 2300, "unit": "mg/kg"}, {"measurement": "LD50", "setting": "[3]; intravenous", "result": 4300, "unit": "µL/kg"}, {"measurement": "LD50 (subcutaneous: mouse)", "setting": "[3]; subcutaneous", "result": 5500, "unit": "µL/kg"}, {"measurement": "LD50", "setting": "[4]", "result": 3, "unit": "mL/kg"}, {"measurement": "LD50", "setting": "[5]", "result": 2500, "unit": "µL/kg"}]}]}
